This is an account of results in ChEMBL document CHEMBL3580568, “Design and synthesis of close analogs of LCRF-0004, a potent and selective RON receptor tyrosine kinase inhibitor” (Bioorg Med Chem Lett, 2015).

Structures are written as SMILES.

Test [1] concerns the target Hepatocyte growth factor receptor (Homo sapiens, UniProt P08581). Briefly: Inhibition of phosphorylation of c-Met in human MKN45 cells.
Test [2] has as its target T1, Macrophage-stimulating protein receptor (Homo sapiens, UniProt Q04912). Briefly: Inhibition of RON (unknown origin) kinase domain by enzymatic assay.
Test [3] deals with T1, Macrophage-stimulating protein receptor. Briefly: Inhibition of RON phosphorylation in human PC3 cells. It is filed as cell-based, PC-3.
Test [4] shares this target. Briefly: Inhibition of RON phosphorylation in human HT29 cells. It is filed as cell-based, HT-29.
In test [5] the test system is A549. Briefly: Antiproliferative activity against human A549 cells by MTT assay. Type of test: functional, cell-based. A general note: Formazan colour is commonly taken as a measure of viable cells.
Test [6] relates to MDA-MB-231. Briefly: Antiproliferative activity against human MDA-MB-231 cells by MTT assay. It is filed as functional, cell-based.

T1 sequence (Q04912 25-304 limits assumed): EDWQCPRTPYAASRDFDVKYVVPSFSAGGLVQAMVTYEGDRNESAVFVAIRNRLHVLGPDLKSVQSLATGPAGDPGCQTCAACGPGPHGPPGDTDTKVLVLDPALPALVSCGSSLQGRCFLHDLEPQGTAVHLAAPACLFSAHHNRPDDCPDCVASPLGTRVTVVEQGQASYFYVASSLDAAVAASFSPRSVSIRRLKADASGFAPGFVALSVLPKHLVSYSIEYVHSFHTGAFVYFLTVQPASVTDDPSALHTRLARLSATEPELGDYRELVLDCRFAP
T1 sequence (Q04912 310-1400 limits assumed): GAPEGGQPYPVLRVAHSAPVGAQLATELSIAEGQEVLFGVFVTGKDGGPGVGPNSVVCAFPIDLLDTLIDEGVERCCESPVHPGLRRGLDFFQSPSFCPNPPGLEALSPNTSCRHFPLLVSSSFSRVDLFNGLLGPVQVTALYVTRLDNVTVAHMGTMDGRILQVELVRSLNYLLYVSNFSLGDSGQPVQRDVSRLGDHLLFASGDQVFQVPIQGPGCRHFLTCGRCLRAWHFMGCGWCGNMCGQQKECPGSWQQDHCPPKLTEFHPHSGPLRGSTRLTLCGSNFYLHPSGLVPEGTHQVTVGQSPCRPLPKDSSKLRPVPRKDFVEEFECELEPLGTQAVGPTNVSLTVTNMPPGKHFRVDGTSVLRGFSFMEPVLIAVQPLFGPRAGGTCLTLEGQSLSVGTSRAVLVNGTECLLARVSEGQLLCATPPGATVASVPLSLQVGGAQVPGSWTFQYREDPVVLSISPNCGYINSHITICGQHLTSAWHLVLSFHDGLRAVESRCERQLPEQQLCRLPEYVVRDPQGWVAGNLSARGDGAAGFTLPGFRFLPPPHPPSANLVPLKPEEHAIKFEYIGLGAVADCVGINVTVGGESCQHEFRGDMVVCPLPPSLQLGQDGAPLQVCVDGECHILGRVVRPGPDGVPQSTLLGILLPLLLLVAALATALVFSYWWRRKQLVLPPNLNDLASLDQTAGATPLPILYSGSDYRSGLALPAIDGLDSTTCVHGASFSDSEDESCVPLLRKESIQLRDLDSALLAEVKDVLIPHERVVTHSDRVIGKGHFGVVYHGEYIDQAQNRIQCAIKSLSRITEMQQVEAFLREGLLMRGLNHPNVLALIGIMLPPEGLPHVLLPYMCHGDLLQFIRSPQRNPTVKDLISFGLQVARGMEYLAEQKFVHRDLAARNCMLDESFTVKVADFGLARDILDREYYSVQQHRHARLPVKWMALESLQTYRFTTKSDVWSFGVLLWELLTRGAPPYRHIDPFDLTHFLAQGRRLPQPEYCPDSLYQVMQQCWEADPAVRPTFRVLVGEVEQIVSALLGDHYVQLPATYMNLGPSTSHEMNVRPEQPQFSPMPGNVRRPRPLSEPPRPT
Chain of Hepatocyte growth factor receptor (P08581 whole entry, the tested form may be a part): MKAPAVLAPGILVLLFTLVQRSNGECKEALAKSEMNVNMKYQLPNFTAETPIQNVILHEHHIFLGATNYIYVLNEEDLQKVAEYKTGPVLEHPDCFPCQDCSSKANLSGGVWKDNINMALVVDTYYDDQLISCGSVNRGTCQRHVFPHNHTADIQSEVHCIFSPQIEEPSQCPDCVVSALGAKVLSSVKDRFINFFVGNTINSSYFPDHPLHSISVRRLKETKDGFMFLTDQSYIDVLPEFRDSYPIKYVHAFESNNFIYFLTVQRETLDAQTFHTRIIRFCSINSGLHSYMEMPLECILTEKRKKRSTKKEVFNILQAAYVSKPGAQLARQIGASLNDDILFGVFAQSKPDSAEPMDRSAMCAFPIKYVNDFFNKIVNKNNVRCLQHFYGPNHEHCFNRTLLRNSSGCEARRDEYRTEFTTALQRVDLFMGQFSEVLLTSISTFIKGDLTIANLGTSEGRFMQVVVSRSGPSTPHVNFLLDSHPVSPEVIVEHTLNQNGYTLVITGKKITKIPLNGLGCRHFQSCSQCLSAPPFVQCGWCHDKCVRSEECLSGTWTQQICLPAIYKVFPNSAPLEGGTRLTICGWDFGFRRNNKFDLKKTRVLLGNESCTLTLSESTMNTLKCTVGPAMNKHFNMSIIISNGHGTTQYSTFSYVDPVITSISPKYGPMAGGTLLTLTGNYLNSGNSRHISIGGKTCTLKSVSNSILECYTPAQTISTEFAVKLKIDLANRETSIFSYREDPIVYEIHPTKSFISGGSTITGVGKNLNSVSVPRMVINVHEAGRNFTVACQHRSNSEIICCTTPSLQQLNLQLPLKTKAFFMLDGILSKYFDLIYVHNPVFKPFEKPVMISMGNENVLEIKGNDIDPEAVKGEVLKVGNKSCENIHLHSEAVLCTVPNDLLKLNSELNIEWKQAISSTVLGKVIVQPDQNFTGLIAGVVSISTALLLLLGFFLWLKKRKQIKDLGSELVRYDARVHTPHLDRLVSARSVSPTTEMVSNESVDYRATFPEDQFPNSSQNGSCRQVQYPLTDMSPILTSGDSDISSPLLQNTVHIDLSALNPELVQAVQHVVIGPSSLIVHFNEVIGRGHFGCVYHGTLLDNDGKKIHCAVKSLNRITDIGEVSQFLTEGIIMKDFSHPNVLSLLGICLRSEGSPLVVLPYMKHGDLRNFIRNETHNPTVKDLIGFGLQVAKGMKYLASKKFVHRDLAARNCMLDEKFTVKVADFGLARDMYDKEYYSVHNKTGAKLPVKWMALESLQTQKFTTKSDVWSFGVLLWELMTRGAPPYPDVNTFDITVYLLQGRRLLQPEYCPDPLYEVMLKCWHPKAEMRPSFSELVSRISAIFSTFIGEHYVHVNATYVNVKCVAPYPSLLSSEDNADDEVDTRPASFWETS

A word on the IC50: it is the concentration that inhibits the measured activity by half. The low end stands for greater potency, the high end for weaker potency. Consider `Cn1cnc(-c2cc3nccc(Oc4ccc(NC(=O)c5ccn(-c6ccccc6)c5C(F)(F)F)cc4F)c3s2)c1`, for which the IC50 entry in test [1] (mkn-45) is “Not Active”.

Regarding `Cn1cnc(-c2cc3nccc(Oc4ccc(NC(=O)c5cnn(-c6ccccc6)c5C(F)(F)F)cc4F)c3s2)c1`, the IC50 in test [2] was 12 nM; in test [3], 30 nM; in test [4], 30 nM; in test [5], 100 nM; in test [1], 6870 nM; in test [6] it was 100 nM.
